{"source": "patent US12310946B2", "about": "“Pharmaceutical composition for oral administration of edaravone and method of administering same” (MITSUBISHI TANABE PHARMA CORPORATION, priority 2020, dated 2025)", "key": {"[1]": {"test": "Clinical Trial #12: PK after oral administration of edaravone solution and suspension", "settings": "male, human, in vivo, fasting (N = 6), mean; for AUC(0-t): read-out: AUC0-24 h", "description": "Whether or not there is an influence on pharmacokinetics by administering in forms of a solution and a suspension when administering edaravone orally was evaluated. Specifically, Clinical Trial #12 described below was conducted on healthy adult Japanese male subjects. Administration during the trial period was a single oral administration.\nEither an edaravone solution containing 60 mg of edaravone or an edaravone suspension containing 120 mg of edaravone was orally administered to subjects in a fasting state of 10 hours or longer since the last meal intake. The 60 mg or 120 mg of edaravone was dissolved or suspended in 50 mL or 10 mL of 0.1% polyvinyl alcohol solution, respectively. The edaravone solution or suspension of the respective content was administered to each of six subjects."}, "[2]": {"test": "Caco-2 cell monolayer membrane permeability test", "settings": "human, Caco-2, pH 7.4", "method": "(§1) Caco-2 cells were seeded on a 24-well plate, cultured at 37° C. for 21 to 23 days in a CO2 incubator, and then a Caco-2 cell monolayer membrane permeability test was conducted. After checking the membrane resistance value of the cell layer after the culture, the culture medium in the plate was replaced with HBSS (pH 7.4). […] For the control compounds, [^3H]propranolol as a high membrane permeability control and [^14C]mannitol as a low membrane permeability control were used."}, "Caco-2 cells": {"test_system": "Caco-2 cells", "test": "Caco-2 cell monolayer membrane permeability test", "method": "as §1"}, "[3]": {"test": "Clinical study #4: PK of edaravone oral formulation (formula #2), high-fat meal 1 hour after administration vs fasted", "type": "in vivo, human", "settings": "100 mg oral; for partial AUC / AUC(0-inf) / Cmax / Tmax / half-life: male, human, plasma, po, 100 mg; for AUC(0-inf) / Cmax / Tmax / half-life: mean (n = 9)", "description": "Effects of meal consumption 1 hour after administration of the edaravone oral formulation on the pharmacokinetics of edaravone were evaluated. Specifically, a clinical study #4 described below was conducted on the same subjects in Japanese healthy adult male subjects. In the clinical study #4, the edaravone oral formulation of the formula #2 in Table 1 above was used and administered orally once during the study period. In addition, the same high-fat meal as that used in Example 1 above was used.\nAs a post-administration consumption group, the same subjects in fasted conditions after a lapse of 10 hours or longer from meal consumption were orally administered with the edaravone oral formulation, and the high-fat meal was consumed 1 hour after the administration. Blood samples were each collected before the administration, and 5 minutes, 15 minutes, 30 minutes, 1 hour, 1.5 hours, 2 hours, 4 hours, 6 hours, 8 hours, 12 hours, 24 hours, 36 hours, and 48 hours after the administration, and the concentrations of unchanged edaravone in plasma were measured. The consumption of the high-fat meal 1 hour after the administration was carried out after the blood sample collection 1 hour after the administration, and a subsequent meal was not consumed until the blood sample collection 4 hours after the administration was completed. On the other hand, as a fasted group for reference, the edaravone oral formulation was administered orally to the same subjects in fasted conditions, blood samples were collected, and the concentrations of unchanged edaravone in plasma were measured in the same manner.\nIn addition, the AUC0-∞ after the administration of the edaravone oral formulation was evaluated separately on the results from 0 hour to 1 hour after the administration (0 to 1 h, before the consumption of a meal resumed after the administration) (AUC0-1h) and the results 1 hour after the administration (1 h to ∞ h, after the consumption of a meal resumed after the administration) (AUC1h-∞) for the post-administration consumption group (1 h before high-fat meal) and the fasted group (Fasted)."}, "[4]": {"test": "Clinical study #1: PK of edaravone oral formulation (formula #1), fasted vs 30 min after high-fat meal", "type": "in vivo", "settings": "male, human, plasma, 200 mg, 200 mg oral", "description": "Effects of meal consumption before administration of the edaravone oral formulation on the pharmacokinetics of edaravone were evaluated. Specifically, clinical studies #1, #2, and #3 described below were conducted on separate days in Japanese healthy adult male subjects. In each of clinical studies #1, #2, and #3, one dose each of edaravone oral formulations (edaravone suspensions) of formulas #1, #2, and #3 shown in Table 1 below were used respectively and administered orally once during the study period. For each clinical study, a reference study was conducted (reference example), in which the edaravone oral formulation was administered in fasted conditions as described below, and in each clinical study and the corresponding reference study, the edaravone oral formulation was each administered to the same subjects.\nFor the high-fat meal, a meal with total calories per meal of 800 to 1000 kilocalories and calorie intake from lipid of 50% was used. For the standard meal, a meal with total calories per meal of 400 to 500 kilocalories and calorie intake from lipid of 25% was used. For the light meal, a liquid-type nutritional supplement with total calories per meal of 250 kilocalories (enteral nutritional supplement: Ensure Liquid (trade name)) was used.\nThe edaravone oral formulation (formula #1) was administered orally to the subjects 30 minutes after high-fat meal consumption. Blood samples were each collected before the administration, and 15 minutes, 30 minutes, 1 hour, 1.5 hours, 2 hours, 4 hours, 6 hours, 8 hours, 12 hours, 24 hours, 36 hours, and 48 hours after the administration, and the concentrations of unchanged edaravone in plasma were measured. On the other hand, as a reference example, the edaravone oral formulation was administered orally to the same subjects in fasted conditions, blood samples were collected, and the concentrations of unchanged edaravone in plasma were measured in the same manner. For the administration in fasted conditions, the edaravone oral formulation was administered orally after a lapse of 10 hours or more from the previous meal consumption (the same applies hereinafter). None of the subjects consumed a next meal until the blood sample collection 4 hours after the administration was completed."}, "[5]": {"settings": "1 h before high-fat meal vs fasted"}, "[6]": {"settings": "high-fat meal 1 hour after administration vs fasted"}, "[7]": {"settings": "formula #2, 1 h before high-fat meal"}, "[8]": {"settings": "formula #1, 30 min after high-fat meal, mean (n = 5)"}, "[9]": {"settings": "formula #1, fasted, mean (n = 6)"}}, "note": "Read-outs that look alike come from different tables or passages of the source."}
{"compound": "CC1=NN(c2ccccc2)C(=O)C1", "note": "[Edaravone, 3-methyl-1-phenyl-2-pyrazolin-5-one]", "values": [{"measurement": "Cmax", "setting": "[1]; Cohort S1, 60 mg, Solution", "value": 755, "unit": "ng/mL"}, {"measurement": "AUC(0-t)", "setting": "[1]; Cohort S1, 60 mg, Solution", "value": 816, "unit": "ng·h/mL"}, {"measurement": "Cmax", "setting": "[1]; Cohort S2, 120 mg, Suspension", "value": 1740, "unit": "ng/mL"}, {"measurement": "AUC(0-t)", "setting": "[1]; Cohort S2, 120 mg, Suspension", "value": 2240, "unit": "ng·h/mL"}, {"measurement": "Papp A→B at 2 h, 100 μmol/L", "setting": "[2]", "value": "32 ± 1.7", "unit": "×10⁻⁶ cm/s"}, {"measurement": "membrane permeability relative to high permeability control", "setting": "Caco-2 cells; Caco-2, vs propranolol", "value": "equal to or higher than that of propranolol"}, {"measurement": "permeability classification under Biopharmaceutics Classification System", "setting": "Caco-2 cells; based on Caco-2 membrane permeability test", "value": "high permeability compound"}, {"measurement": "change in the AUC0-1h in comparison with fasted", "setting": "[3]; [5]", "value": "slight decrease"}, {"measurement": "change in the AUC1h-∞ in comparison with fasted", "setting": "[3]; [5]", "value": "no change"}, {"measurement": "change in the AUC in comparison with fasted", "setting": "[3]; [5]", "value": "→"}, {"measurement": "change in the Cmax in comparison with fasted", "setting": "[3]; [5]", "value": "→"}, {"measurement": "decrease in the AUC in comparison with the fasted group", "setting": "[3]; [6]", "value": "about 10.4%"}, {"measurement": "decrease in the Cmax in comparison with the fasted group", "setting": "[3]; [6]", "value": "about 17.0%"}, {"measurement": "partial AUC", "setting": "[3]; 1 h before high-fat meal (n = 9), read-out: AUC0-1h", "value": "772 ± 519", "unit": "ng·h/mL"}, {"measurement": "partial AUC", "setting": "[3]; 1 h before high-fat meal (n = 9), read-out: AUC1h-∞", "value": "703 ± 202", "unit": "ng·h/mL"}, {"measurement": "partial AUC", "setting": "[3]; fasted (n = 9), read-out: AUC0-1h", "value": "890 ± 349", "unit": "ng·h/mL"}, {"measurement": "partial AUC", "setting": "[3]; fasted (n = 9), read-out: AUC1h-∞", "value": "756 ± 232", "unit": "ng·h/mL"}, {"measurement": "AUC(0-inf)", "setting": "[3]; [7]", "value": 1480, "unit": "ng·h/mL"}, {"measurement": "Cmax", "setting": "[3]; [7]", "value": 1500, "unit": "ng/mL"}, {"measurement": "Tmax", "setting": "[3]; [7]", "value": 0.6, "unit": "h"}, {"measurement": "half-life", "setting": "[3]; [7]", "value": 9.65, "unit": "h"}, {"measurement": "AUC(0-inf)", "setting": "[3]; formula #2, fasted", "value": 1650, "unit": "ng·h/mL"}, {"measurement": "Cmax", "setting": "[3]; formula #2, fasted", "value": 1810, "unit": "ng/mL"}, {"measurement": "Tmax", "setting": "[3]; formula #2, fasted", "value": 0.36, "unit": "h"}, {"measurement": "half-life", "setting": "[3]; formula #2, fasted", "value": 9.33, "unit": "h"}, {"measurement": "AUC(0-inf)", "setting": "[4]; [8]", "value": 2470, "unit": "ng·h/mL"}, {"measurement": "Cmax", "setting": "[4]; [8]", "value": 899, "unit": "ng/mL"}, {"measurement": "Tmax", "setting": "[4]; [8]", "value": 1.35, "unit": "h"}, {"measurement": "half-life", "setting": "[4]; [8]", "value": 5.23, "unit": "h"}, {"measurement": "AUC(0-inf)", "setting": "[4]; [9]", "value": 6310, "unit": "ng·h/mL"}, {"measurement": "Cmax", "setting": "[4]; [9]", "value": 4930, "unit": "ng/mL"}, {"measurement": "Tmax", "setting": "[4]; [9]", "value": 0.42, "unit": "h"}, {"measurement": "half-life", "setting": "[4]; [9]", "value": 9.05, "unit": "h"}]}
